Results published in paper PMC3813006 (Bioorganic & medicinal chemistry, 2009).

How the values were obtained:
[1] = system: Trypanosoma brucei rhodesiense STIB900; assay: In vitro antitrypanosomal assay, T. b. r. STIB900; format: cell-based; conditions: RHODESIENSE|STIB900, read-out: T. b. r. IC50
Plasmodium falciparum K1 = assay: microbe, parasite or virus in culture; conditions: K1, read-out: P. f. IC50
L6 rat myoblast cells = assay: Cytotoxicity in cultured L6 rat myoblast cells; format: cell-based; conditions: read-out: Cytotoxicity IC50; cultured L6 rat myoblast cells
[2] = Cytotoxicity in cultured L6 rat myoblast cells; format: cell-based; conditions: rat, L6 rat myoblast cells

## N=C(N)c1ccc(-c2ccc(-c3ccc(C(=N)N)cn3)o2)cc1 [3a, azafuramidine]
[1]
  IC50: 0.0065 µM
Plasmodium falciparum K1
  IC50: 0.0065 µM

## N=C(N)c1ccc(-c2ccc(-c3ccc(C(=N)N)cc3)nn2)cc1 [15b]
L6 rat myoblast cells
  IC50: 31.3 µM

## N=C(N)c1ccc(-c2ccc(-c3ccc(C(=N)N)cc3)cc2)cc1 [6a]
[2]
  IC50: 22.1 µM
